Patent publication US12545668B2, “Cyclic amine derivative as agent for promoting advillin function, and novel cyclic amine derivative and pharmaceutical use thereof” (Toray Industries, Inc., priority 2018, dated 2026)

Test system: F11 cells (rat dorsal root ganglion neuron cell line)
Assay: Effect of decreasing intracellular actin filaments in F11 cells with oxaliplatin-induced axonal injury (phalloidin staining)
Type: cell-based
Details: F-11 rat/mouse fusion cell line, F11, 120 h, compound 10 μM with oxaliplatin 15 μM, 5 days; compared to oxaliplatin alone treated group; average of five samples; read-out: Decreasing Rate of Intracellular Actin Filament (%)
Source text: The effect of the cyclic amine derivative (I) or a pharmacologically acceptable salt thereof on the amount of intracellular actin filaments in F11 cells (rat dorsal root ganglion neuron cell line) was examined.
As test compounds, the compounds of Examples 1, 2, 3, 4, 5, 6, 7, 8, and 9 were used.
As compounds of comparative examples, 1-(4-(dimethylamino)piperidin-1-yl)-3-(1-ethyl-1H-imidazol-2-yl)-3-hydroxypropan-1-one (hereinafter, the compound of Comparative Example 1), 1-(4-(dimethylamino)piperidin-1-yl)-3-hydroxy-3-(1-(2,2,2-trifluoroethyl)-1H-imidazol-2-yl)propan-1-one (hereinafter, the compound of Comparative Example 2), 1-((R)-3-(dimethylamino)pyrrolidin-1-yl)-3-hydroxy-3-(1-methyl-1H-imidazol-2-yl)propan-1-one (hereinafter, the compound of Comparative Example 3), and 1-((R)-[…]-3-hydroxy-3-(1-methyl-1H-imidazol-2-yl)propan-1-one (hereinafter, the compound of Comparative Example 4) shown in Table 4 were used. The compounds of Comparative Examples 1, 2, 3, and 4 were synthesized in accordance with methods described in International Publication No. WO2016/136944.
For peeling the F11 cells off from a culture flask, 0.25% Trypsin/EDTA (manufactured by Thermo Fisher Scientific K.K.) was added to the cells, followed by incubation at room temperature for several minutes. Thereafter, 10% fetal bovine serum-containing DMEM medium (manufactured by Thermo Fisher Scientific K.K.) was added thereto for suspension, and the resultant centrifuged at 1,500 rpm for 1 minute. After removing the resultant centrifugal supernatant, 0.5% fetal bovine serum-containing DMEM medium was added thereto for suspending cells therein, and the resultant seeded in a poly-D-lysine-coated 96 well plate (manufactured by BD Biosciences) coated with laminin (2 μg/cm^2, manufactured by Sigma Aldrich) to be cultured at 37° C. under an environment of 5% CO2. Two hours after seeding the cells, N,N-dibutyladenosine 3′,5′-phosphate (final concentration 1 mM, manufactured by Sigma Aldrich) and recombinant rat GDNF (final concentration 50 ng/mL, manufactured by PeproTech) were added thereto to culture the cells at 37° C. under an environment of 5% CO2 for 7 days for differentiation.
Seven days after starting the culture, the medium was exchanged with 0.5% fetal bovine serum-containing DMEM medium containing oxaliplatin (final concentration 15 μM), and the resultant cultured for 5 days to induce axonal injury. Each of the compounds of Examples and Comparative Examples was caused to be contained in the medium (final concentration 10 μM) for treatment in the same manner as oxaliplatin.
Five days after treatment with oxaliplatin and each of the compounds, the resultant cells were washed with PBS(−) three times, a 4% paraformaldehyde-phosphate buffer (manufactured by Wako Pure Chemical Industries Ltd.) was added thereto, and the resultant allowed to stand still at room temperature for 10 minutes to fix the cells. Acti-stain 670 phalloidin (manufactured by Cytoskeleton Inc.) was added thereto, and the resultant incubated at room temperature for 30 minutes to stain actin filaments. An image of the cells was acquired using IN Cell Analyzer 2200 (manufactured by GE Healthcare), and the image analyzed using IN Cell Investigator Developer Toolbox. The amount of intracellular actin filaments was indicated by the amount of fluorescence (density) of fluorescent-labeled phalloidin binding to the actin filaments.
In a group treated with oxaliplatin alone (hereinafter, the oxaliplatin alone treated group), the amount of intracellular actin filaments increased by 5% compared to that in a group not treated with oxaliplatin. […] A decreasing rate of intracellular actin filaments, caused by each compound compared to the amount of intracellular actin filaments of the oxaliplatin alone treated group was calculated. […]

Compound: CN(C)C1CCN(C(=O)C[C@H](O)c2nccn2C)CC1 [Example 7, (S)-1-(4-(dimethylamino)piperidin-1-yl)-3-hydroxy-3-(1-methyl-1H-imidazol-2-yl)propan-1-one]
- inhibition at 10 µM: ≥ 5%
